# Data taken from patent US20220193081A1 (Ellamed IP & Services PTE. LTD., priority 2019, published 2022).
# Columns and labels:
# Assay type in all cases: physicochemical
# [1] = HPLC assay on storage of sildenafil citrate with equal concentration of sucralose in pH adjusted 50% ethanol (Example 2); conditions: for Impurity B / Impurity D / sildenafil assay / concentration of sildenafil by HPLC: 21 mg/ml; for Impurity B / Impurity D / sildenafil assay: 25° C., Day 285
# Protocol: (§1) At room temperature, a phosphate buffer was prepared by weighing 3.9 g of NaH2PO4.2H2O into a 500 mL volumetric flask and adding approximately 300 mL of purified water until the phosphate fully dissolved. The pH was then adjusted to 7 with the introduction of NaOH and dilute to the requisite volume by the further addition of purified water.
# (§2) A 50% ethanol mixture was prepared by introducing either purified water, taken from a MilliQ™ unit or phosphate buffer, to equivalent volumes of Ph.Eur. grade absolute alcohol. The pH of the resultant mixture was then adjusted by using either NaOH 1N solutions and/or Sodium Citrate 1N solutions to reach predetermined pH values.
# (§3) Samples of sucralose were then dissolved in the pH adjusted 50% ethanol, whilst stirred with a magnetic stirrer and a needle, to a predetermined concentration. […] After preparation, the solutions were each filtered through PDVF 0.22 micro filter of 13 mm in size and placed in polypropylene containers of adequate volume.
# (§4) Before being placed on storage, and at time points 7 and 42 days, the concentration of sildenafil in the mixture was assayed using HPLC. The samples were then stored at either −20° C., 2-8° C. or 25° C. for periods of up to 42 days. Periodically, the samples were visually inspected for evidence of precipitation or crystallization. […]
# The samples of 21 mg/ml at a pH of 5.6 were maintained in stability testing at 25° C. for a total of 285 days.
# [2] = HPLC assay on storage of sildenafil citrate in buffered 60% aqueous ethanol (Example 4); conditions: pH 5.5, NaOH
# Protocol: Before being placed on storage, and at time points 7 and 42 days, the concentration of sildenafil in the mixtures were assayed using HPLC. The samples were then stored at either −20° C., 2-8° C. or 25° C. for periods of up to 42 days. Periodically, the samples were visually inspected for evidence of crystallization.
# [3] = Visual inspection on storage of sildenafil citrate with equal concentration of sucralose in pH adjusted 50% ethanol (Example 2)
# Protocol: as §1, §2, §3, §4
structure (smiles),measurement,setting,value
"CCCc1nn(C)c2c(=O)nc(-c3cc(S(=O)(=O)N4CCN(C)CC4)ccc3OCC)[nH]c12.O=C(O)CC(O)(CC(=O)O)C(=O)O [sildenafil citrate, 1-[[3-(4,7-Dihydro-1-methyl-7-oxo-3-propyl-1H-pyrazolo[4,3-d]pyrimidin-5-yl)-4-ethoxyphenyl]sulfonyl]-4-methylpiperazine citrate salt]",Impurity B,"[1]; pH 5.6, NaOH",0.00
same,Impurity D,"[1]; pH 5.6, NaOH",0.02
same,sildenafil assay,"[1]; pH 5.6, NaOH",21.16
same,concentration of sildenafil by HPLC,"[1]; pH 5.6, NaOH, 50% ethanol/phosphate buffer, 2-8 ° C., Day 7",20930 µg/mL
same,concentration of sildenafil by HPLC,"[1]; pH 5.6, NaOH, 50% ethanol/phosphate buffer, 25 ° C., Day 7",20990 µg/mL
same,concentration of sildenafil by HPLC,"[1]; pH 5.6, NaOH, 50% ethanol/phosphate buffer, Day 0",20970 µg/mL
same,concentration of sildenafil by HPLC,"[1]; pH 5.6, NaOH, Day 0",21200 µg/mL
same,concentration of sildenafil by HPLC,"[1]; pH 5.6, Sodium Citrate, 2-8 ° C., Day 7",20990 µg/mL
same,concentration of sildenafil by HPLC,"[1]; pH 5.6, Sodium Citrate, 2-8 ° C., Day 42",21410 µg/mL
same,concentration of sildenafil by HPLC,"[1]; pH 5.6, Sodium Citrate, 25 ° C., Day 7",21060 µg/mL
same,concentration of sildenafil by HPLC,"[1]; pH 5.6, Sodium Citrate, 25 ° C., Day 42",21270 µg/mL
same,Impurity B,"[1]; pH 5.6, Sodium Citrate",0.01
same,Impurity D,"[1]; pH 5.6, Sodium Citrate",0.02
same,sildenafil assay,"[1]; pH 5.6, Sodium Citrate",21.14
same,concentration of sildenafil by HPLC,"[1]; pH 5.6, Sodium Citrate, Day 0",21260 µg/mL
same,concentration of sildenafil by HPLC,"[1]; pH 5.8, NaOH, 2-8 ° C., Day 7",20950 µg/mL
same,concentration of sildenafil by HPLC,"[1]; pH 5.8, NaOH, 25 ° C., Day 7",21730 µg/mL
same,concentration of sildenafil by HPLC,"[1]; pH 5.8, NaOH, Day 0",21150 µg/mL
same,concentration of sildenafil by HPLC,"[1]; pH 5.8, Sodium Citrate, 2-8 ° C., Day 7",20960 µg/mL
same,concentration of sildenafil by HPLC,"[1]; pH 5.8, Sodium Citrate, 25 ° C., Day 7",21070 µg/mL
same,concentration of sildenafil by HPLC,"[1]; pH 5.8, Sodium Citrate, Day 0",21080 µg/mL
same,concentration of sildenafil by HPLC,"[1]; pH 6.01, NaOH, 50% ethanol/phosphate buffer, 2-8 ° C., Day 7",16220 µg/mL
same,concentration of sildenafil by HPLC,"[1]; pH 6.01, NaOH, 50% ethanol/phosphate buffer, 25 ° C., Day 7",18020 µg/mL
same,concentration of sildenafil by HPLC,"[1]; pH 6.01, NaOH, 50% ethanol/phosphate buffer, Day 0",20770 µg/mL
same,breakdown products,"[1]; any of the conditions tested, up to 42 days",No breakdown products were identified
same,concentration of sildenafil by HPLC,"[2]; 18 mg/ml, with sucralose, 2-8 ° C., Day 7",18550 µg/mL
same,concentration of sildenafil by HPLC,"[2]; 18 mg/ml, with sucralose, 2-8 ° C., Day 42",15240 µg/mL
same,concentration of sildenafil by HPLC,"[2]; 18 mg/ml, with sucralose, 25 ° C., Day 7",18000 µg/mL
same,concentration of sildenafil by HPLC,"[2]; 18 mg/ml, with sucralose, 25 ° C., Day 42",17940 µg/mL
same,concentration of sildenafil by HPLC,"[2]; 18 mg/ml, with sucralose, Day 0",17560 µg/mL
same,concentration of sildenafil by HPLC,"[2]; 18 mg/ml, without sucralose, 2-8 ° C., Day 7",18330 µg/mL
same,concentration of sildenafil by HPLC,"[2]; 18 mg/ml, without sucralose, 2-8 ° C., Day 42",15230 µg/mL
same,concentration of sildenafil by HPLC,"[2]; 18 mg/ml, without sucralose, 25 ° C., Day 7",18080 µg/mL
same,concentration of sildenafil by HPLC,"[2]; 18 mg/ml, without sucralose, 25 ° C., Day 42",17190 µg/mL
same,concentration of sildenafil by HPLC,"[2]; 18 mg/ml, without sucralose, Day 0",17420 µg/mL
same,concentration of sildenafil by HPLC,"[2]; 21 mg/ml, without sucralose, 2-8 ° C., Day 7",22110 µg/mL
same,concentration of sildenafil by HPLC,"[2]; 21 mg/ml, without sucralose, 2-8 ° C., Day 42",13780 µg/mL
same,concentration of sildenafil by HPLC,"[2]; 21 mg/ml, without sucralose, 25 ° C., Day 7",20400 µg/mL
same,concentration of sildenafil by HPLC,"[2]; 21 mg/ml, without sucralose, 25 ° C., Day 42",19610 µg/mL
same,concentration of sildenafil by HPLC,"[2]; 21 mg/ml, without sucralose, Day 0",20520 µg/mL
same,visual inspection for precipitation or crystallization,"[3]; 15 mg/ml, pH 5.0, Sodium Citrate, 2-8° C.",Prec.
same,visual inspection for precipitation or crystallization,"[3]; 15 mg/ml, pH 5.0, Sodium Citrate, 25° C.",Prec.
same,visual inspection for precipitation or crystallization,"[3]; 15 mg/ml, pH 5.0, Sodium Citrate, −20° C.",Prec.
same,visual inspection for precipitation or crystallization,"[3]; 15 mg/ml, pH 5.2, NaOH, −20° C.",Prec.
same,visual inspection for precipitation or crystallization,"[3]; 15 mg/ml, pH 6.01, NaOH, 50% ethanol/phosphate buffer, 2-8° C.",Prec.
same,visual inspection for precipitation or crystallization,"[3]; 15 mg/ml, pH 6.01, NaOH, 50% ethanol/phosphate buffer, −20° C.",Prec.
same,visual inspection for precipitation or crystallization,"[3]; 15 mg/ml, pH 6.2, NaOH, 2-8° C.",Prec.
same,visual inspection for precipitation or crystallization,"[3]; 15 mg/ml, pH 6.2, NaOH, 25° C.",Prec.
same,visual inspection for precipitation or crystallization,"[3]; 15 mg/ml, pH 6.2, NaOH, −20° C.",Prec.
same,visual inspection for precipitation or crystallization,"[3]; 15 mg/ml, pH 6.2, Sodium Citrate, 2-8° C.",Prec.
same,visual inspection for precipitation or crystallization,"[3]; 15 mg/ml, pH 6.2, Sodium Citrate, −20° C.",Prec.
same,visual inspection for precipitation or crystallization,"[3]; 18 mg/ml, pH 5.2, NaOH, −20° C.",Prec.
same,visual inspection for precipitation or crystallization,"[3]; 18 mg/ml, pH 5.2, Sodium Citrate, −20° C.",Prec.
same,visual inspection for precipitation or crystallization,"[3]; 18 mg/ml, pH 6.0, NaOH, 50% ethanol/phosphate buffer, 2-8° C.",Prec.
same,visual inspection for precipitation or crystallization,"[3]; 18 mg/ml, pH 6.0, NaOH, 50% ethanol/phosphate buffer, −20° C.",Prec.
same,visual inspection for precipitation or crystallization,"[3]; 18 mg/ml, pH 6.0, Sodium Citrate, 2-8° C.",Prec.
same,visual inspection for precipitation or crystallization,"[3]; 18 mg/ml, pH 6.0, Sodium Citrate, −20° C.",Prec.
same,visual inspection for precipitation or crystallization,"[3]; 18 mg/ml, pH 6.2, NaOH, 2-8° C.",Prec.
same,visual inspection for precipitation or crystallization,"[3]; 18 mg/ml, pH 6.2, NaOH, 25° C.",Prec.
same,visual inspection for precipitation or crystallization,"[3]; 18 mg/ml, pH 6.2, NaOH, −20° C.",Prec.
same,visual inspection for precipitation or crystallization,"[3]; 21 mg/ml, pH 5.29, NaOH, 50% ethanol/phosphate buffer, −20° C.",Prec.
same,visual inspection for precipitation or crystallization,"[3]; 21 mg/ml, pH 5.5, NaOH, −20° C.",Prec.
same,visual inspection for precipitation or crystallization,"[3]; 21 mg/ml, pH 5.5, Sodium Citrate, −20° C.",Prec.
same,visual inspection for precipitation or crystallization,"[3]; 21 mg/ml, pH 5.6, NaOH, 50% ethanol/phosphate buffer, 2-8° C.",Prec.
same,visual inspection for precipitation or crystallization,"[3]; 21 mg/ml, pH 5.6, NaOH, 50% ethanol/phosphate buffer, −20° C.",Prec.
same,visual inspection for precipitation or crystallization,"[3]; 21 mg/ml, pH 5.8, NaOH, 2-8° C.",Prec.
same,visual inspection for precipitation or crystallization,"[3]; 21 mg/ml, pH 6.01, NaOH, 50% ethanol/phosphate buffer, 2-8° C.",Prec.
same,visual inspection for precipitation or crystallization,"[3]; 21 mg/ml, pH 6.01, NaOH, 50% ethanol/phosphate buffer, −20° C.",Prec.
